The results in this text go back to patent US20260098017A1, “NOVEL AROMATIC RING DERIVATIVE CONTAINING AMIDE SUBSTITUTION AND USE THEREOF” (TIANJIN PHARMACEUTICAL BIOTECHNOLOGY CO., LTD., priority 2022, published 2026).

In one series the test system is SD rats. Briefly: Four-week repeat-dose toxicity study in rats. It is filed as in vivo. The conditions noted are these: rat, 28 days, po bid, 50 mg/kg. As to the method: Each group contained 10 animals, with an equal number of males and females.
The treatment lasted for four consecutive weeks (28 days).
• Daily clinical observation and body weight measurement; • After the last administration, rats were fasted for more than 16 h, anesthetized on the next day, and blood was collected from abdominal aorta. Tests such as hematology (EDTA-2K anticoagulation), blood biochemistry (serum), coagulation function (separated plasma with sodium citrate anticoagulation) and the like were respectively carried out; • After euthanization of the animals, the tissue organs were dissected and observed in general, and organ weights and coefficients (heart, liver, spleen, kidney, thymus) were determined; • The skin and lung tissues of the administration site were taken for HE staining to observe the changes in epidermal thickness, dermal inflammatory cells and pulmonary lesions.

Series [1] concerns imiquimod-induced mouse psoriasis-like model. Briefly: Imiquimod-induced mouse psoriasis-like model (PASI score). It is filed as in vivo. The conditions noted are these: bid; for Improvement of psoriasis symptoms by oral administration: oral gavage, 10 mg/kg, 25 mg/kg, 50 mg/kg, compared with the model group.
A further series has as its target JAK3 JH1 kinase (Homo sapiens, UniProt P52333). Briefly: JAK3 JH1 enzyme assay in vitro (TR-FRET). It is filed as biochemical. (In general: In TR-FRET formats the signal depends on donor and acceptor labels being close together.)
Another series has as its target TYK2 JH2 pseudokinase (Homo sapiens, UniProt P29597). Briefly: TYK2 JH2 enzyme binding assay in vitro (TR-FRET). Here is the method:
Instrumentation: Envision microplate reader (PerkinElmer), ECHO550 (LABCYTE).
Method: the inhibitory effects of compounds on TYK2 JH2 pseudokinase was tested using time-resolved fluorescence resonance energy transfer (TR-FRET) method.
Procedure: compounds were prepared into 10 mM stock solutions using DMSO, which were further diluted into compound dilutions (200×) with different concentration gradients in DMSO, and the compound dilutions (200×) were transferred to a 384-well assay plate using an Echo instrument. […] TYK2 JH2 pseudokinase, Tb antibody, and Tracer working solutions were prepared using the dilution buffer, respectively. 5 uL of TYK2 JH2 pseudokinase working solution (final concentration 0.5 nM) was added to a 384-well assay plate, and centrifuged at 1000 rpm for 30 s. 5 uL of Tb antibody (final concentration 1×) was added to the 384-well assay plate, and centrifuged at 1000 rpm for 30 s. 5 uL of Tracer (final concentration 0.5 nM) was added to the 384-well assay plate, and centrifuged at 1000 rpm for 30 s. Incubation was performed at room temperature for 60 min, and then at 4° C. overnight.
Data Analysis: XLfit, a software developed by IDBS and integrated into the Microsoft Excel environment, was used to process and analyze the test data.

In the next series the target is JAK1 JH2 pseudokinase (Homo sapiens, UniProt P23458). As to the kind of experiment: JAK1 JH2 enzyme binding assay in vitro (TR-FRET). As to conditions: read-out: JAK 1 JH2 IC50. Here is the method: Instrumentation: Envision microplate reader (PerkinElmer), Echo (LABCYTE)
Method: in this experiment, the inhibitory effects of compounds on JAK1 JH2 pseudokinase was tested using time-resolved fluorescence resonance energy transfer (TR-FRET) method.
Procedure: compounds were prepared into 10 mM stock solutions using DMSO, which were further diluted into compound dilutions with different concentration gradients in DMSO, and the compound dilutions with 200× final concentration were transferred to a 384-well assay plate using an Echo instrument. The preparation of the following 1× assay working solution: HEPES pH7.5 at a final concentration of 20 mM, MgCl2 at a final concentration of 10 mM, Brij-35 at a final concentration of 0.015%, DTT at a final concentration of 2 mM, BSA at a final concentration of 50 ug/mL. JAK1 JH2 pseudokinase with 3× final concentration, Tb antibody and Tracer were prepared using their respective 1× working solution. 5 uL of JAK1 JH2 pseudokinase was added to a 384-well assay plate, and centrifuged at 1000 rpm for 30 s. 5 uL of Tb antibody was added to the 384-well assay plate, and centrifuged at 1000 rpm for 30 s. 5 uL of Tracer was added to the 384-well assay plate, and centrifuged at 1000 rpm for 30 s. Incubation was performed at room temperature for 60 min, and then at 4° C. overnight. Finally, the 495 nm/520 nm fluorescence signal ratio was measured using the Envision microplate reader (PerkinElmer).
Data Analysis: XLfit, a software developed by IDBS and integrated into the Microsoft Excel environment, was used to process and analyze the test data. […] Thereafter, the concentration and corresponding inhibition rate data were imported into the XLfit software, and the Dose Response One Site 205 model within the software was employed to fit the inhibition rate-concentration curve by four-parameter method, and the IC50 value of the compound was calculated.

The target in the next series is T1, hERG channel (Homo sapiens, UniProt Q12809).
T1 construct: expressed in transfected cells; host or cells: HEK-293
Briefly: hERG potassium channel inhibition assay (manual patch clamp). It is filed as cell-based. As to conditions: HEK-293 cell line stably expressing hERG channel, at the tested concentrations. Here is the method:
Instrumentation: HEKA EPC 10 patch clamp amplifier.
Method: in this experiment, the blocking effect of the compounds on the current of the HEK-293 cell line stably expressing hERG channel was measured using the manual patch clamp technique, and the risk of the compounds on the inhibition of cardiac hERG potassium channel was assessed by fitting the concentration effect relationship.
Procedure: in the patch clamp operation, firstly, a capillary glass tube was pulled into a recording electrode using a microelectrode puller, then an electrode filled with intracellular solution was mounted into a microelectrode holder. A microelectrode manipulator was operated under an inverted microscope to immerse the electrode into an extracellular solution and the electrode resistance (Rpip) was recorded. Then, the electrode was slowly brought into contact with the cell surface, and a negative pressure was applied for suction to form a GΩ seal. At this point, a fast capacitance compensation was performed, and a negative pressure was continuously applied to suck and break the cell membrane to form a whole cell recording mode. Finally, a slow capacitance compensation was performed and experimental parameters including series resistance (Rs) and the like were recorded. No leakage compensation was performed. When the hERG current recorded by the whole cell was stable, the administration of drugs commenced, and each drug concentration acted for about 5 min (or until the current stabilization) before detecting the next concentration. A cover glass covered with cells was placed in a recording bath under an inverted microscope, the blank control extracellular solution and the working solution of the compounds to be tested sequentially flowed through the recording bath from low concentration to high concentration by using gravity perfusion to act on the cells, and solution exchange was performed using a peristaltic pump during recording. The current measured by each cell in the extracellular solution without the compound served as its own control group. Each concentration was independently assessed twice. All electrophysiological tests were performed at room temperature.
Data Analysis: firstly, the tail current (Peak tail currentcompound) after the action of each drug concentration and the blank control tail current (Peak tail currentcontrol) were normalized, then the inhibition rate
corresponding to each drug concentration was calculated, and the mean (Mean), standard deviation (SD) and standard error (SE) of the inhibition rate corresponding to each concentration were calculated, with data expressed as Mean±SE. The calculation of IC50 value and the fitting of dose-response curve for the compound were performed using GraphPad Prism software.
On the technique in general: Block of hERG is tested as a sign of cardiac risk.

For a further series, the target named is T2, TYK2 JH1 kinase (Homo sapiens, UniProt P29597).
T2 sequence (P29597 897-1176 limits assumed): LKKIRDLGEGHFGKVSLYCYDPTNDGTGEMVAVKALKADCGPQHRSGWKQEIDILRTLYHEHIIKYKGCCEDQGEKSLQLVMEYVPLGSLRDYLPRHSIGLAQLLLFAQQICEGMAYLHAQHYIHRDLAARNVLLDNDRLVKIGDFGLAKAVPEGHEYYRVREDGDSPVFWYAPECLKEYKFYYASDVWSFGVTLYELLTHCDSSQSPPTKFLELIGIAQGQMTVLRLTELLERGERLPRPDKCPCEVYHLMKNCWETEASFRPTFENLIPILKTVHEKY
Briefly: TYK2 JH1 enzyme assay in vitro (TR-FRET). It is filed as biochemical.

For the next series, the target named is JAK2 JH1 kinase (Homo sapiens, UniProt O60674). As to the kind of experiment: JAK2 JH1 enzyme assay in vitro (TR-FRET). It is filed as biochemical. As to conditions: read-out: JAK 2 JH1 IC50.
The target of the next series is JAK1 JH1 kinase (Homo sapiens, UniProt P23458). As to the kind of experiment: JAK1 JH1 enzyme assay in vitro (TR-FRET). It is filed as biochemical. The conditions noted are these: read-out: JAK 1 JH1 IC50.
In series [2] the target is Ba/F3 cell line expressing TYK2 (Homo sapiens, UniProt P29597, cells depend on it, form not given). Briefly: In vitro cellular inhibition assay (Ba/F3 cell proliferation, CellTiter-Glo). It is filed as cell-based. The conditions noted are these: read-out: IC50 (the source's name). The procedure, abridged:
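Ba/F3 cells dependent on TYK2 were exposed to serially diluted compound, then viability was read by CellTiter-Glo luminescence. Inhibition (%) was calculated from RLU relative to max and min controls, and IC50 was obtained by curve fitting.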
A general note: In ATP-based viability assays light output follows the ATP content of the culture.

Setting [3] is: TR-FRET, read-out: JAK 3 JH1 IC50.

Like-named read-outs stand apart in the source and are kept apart here. Marks after values point to notes of the source that are not given here.

JAK1 JH1 kinase, sequence (P23458 875-1153 limits assumed): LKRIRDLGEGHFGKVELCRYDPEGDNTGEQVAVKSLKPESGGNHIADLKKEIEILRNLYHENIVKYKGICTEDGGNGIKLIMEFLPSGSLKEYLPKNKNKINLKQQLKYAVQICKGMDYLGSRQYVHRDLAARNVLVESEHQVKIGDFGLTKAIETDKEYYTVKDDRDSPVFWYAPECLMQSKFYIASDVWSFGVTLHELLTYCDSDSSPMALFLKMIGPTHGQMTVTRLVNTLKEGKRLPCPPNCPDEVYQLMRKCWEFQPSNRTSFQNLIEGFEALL
JAK3 JH1 kinase, sequence (P52333 822-1111 limits assumed): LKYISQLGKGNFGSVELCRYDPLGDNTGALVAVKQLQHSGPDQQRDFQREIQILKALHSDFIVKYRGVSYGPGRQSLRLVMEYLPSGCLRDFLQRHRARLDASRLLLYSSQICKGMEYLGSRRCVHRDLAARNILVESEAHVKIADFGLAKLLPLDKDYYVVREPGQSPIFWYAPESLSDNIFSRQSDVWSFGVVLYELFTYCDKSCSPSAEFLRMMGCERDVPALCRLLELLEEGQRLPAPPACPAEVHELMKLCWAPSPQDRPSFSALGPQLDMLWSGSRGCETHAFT
JAK2 JH1 kinase, sequence (O60674 849-1124 limits assumed): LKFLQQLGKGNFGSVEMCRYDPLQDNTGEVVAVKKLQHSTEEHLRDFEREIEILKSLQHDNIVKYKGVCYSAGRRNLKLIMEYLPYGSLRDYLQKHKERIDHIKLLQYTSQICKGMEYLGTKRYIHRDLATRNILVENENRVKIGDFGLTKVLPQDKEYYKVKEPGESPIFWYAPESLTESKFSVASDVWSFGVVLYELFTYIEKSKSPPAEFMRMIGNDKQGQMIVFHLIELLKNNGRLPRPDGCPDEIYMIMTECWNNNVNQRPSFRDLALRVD
JAK1 JH2 pseudokinase, sequence (P23458 583-855 limits assumed): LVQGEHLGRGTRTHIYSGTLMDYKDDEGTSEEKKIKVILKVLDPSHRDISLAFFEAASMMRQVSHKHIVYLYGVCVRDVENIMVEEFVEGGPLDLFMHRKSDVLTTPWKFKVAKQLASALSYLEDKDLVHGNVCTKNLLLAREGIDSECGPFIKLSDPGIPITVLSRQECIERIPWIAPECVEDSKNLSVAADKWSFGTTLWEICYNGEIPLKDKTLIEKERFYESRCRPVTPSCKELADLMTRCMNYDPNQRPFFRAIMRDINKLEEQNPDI
TYK2 JH2 pseudokinase, sequence (P29597 589-875 limits assumed): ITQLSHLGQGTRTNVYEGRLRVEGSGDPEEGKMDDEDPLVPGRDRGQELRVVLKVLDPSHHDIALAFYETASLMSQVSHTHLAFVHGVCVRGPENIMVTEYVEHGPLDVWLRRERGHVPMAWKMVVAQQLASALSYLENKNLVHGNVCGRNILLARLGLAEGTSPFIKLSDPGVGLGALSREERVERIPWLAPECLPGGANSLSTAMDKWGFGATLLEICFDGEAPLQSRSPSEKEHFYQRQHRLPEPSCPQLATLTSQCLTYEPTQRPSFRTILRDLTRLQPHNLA
T1 sequence (Q12809 whole entry): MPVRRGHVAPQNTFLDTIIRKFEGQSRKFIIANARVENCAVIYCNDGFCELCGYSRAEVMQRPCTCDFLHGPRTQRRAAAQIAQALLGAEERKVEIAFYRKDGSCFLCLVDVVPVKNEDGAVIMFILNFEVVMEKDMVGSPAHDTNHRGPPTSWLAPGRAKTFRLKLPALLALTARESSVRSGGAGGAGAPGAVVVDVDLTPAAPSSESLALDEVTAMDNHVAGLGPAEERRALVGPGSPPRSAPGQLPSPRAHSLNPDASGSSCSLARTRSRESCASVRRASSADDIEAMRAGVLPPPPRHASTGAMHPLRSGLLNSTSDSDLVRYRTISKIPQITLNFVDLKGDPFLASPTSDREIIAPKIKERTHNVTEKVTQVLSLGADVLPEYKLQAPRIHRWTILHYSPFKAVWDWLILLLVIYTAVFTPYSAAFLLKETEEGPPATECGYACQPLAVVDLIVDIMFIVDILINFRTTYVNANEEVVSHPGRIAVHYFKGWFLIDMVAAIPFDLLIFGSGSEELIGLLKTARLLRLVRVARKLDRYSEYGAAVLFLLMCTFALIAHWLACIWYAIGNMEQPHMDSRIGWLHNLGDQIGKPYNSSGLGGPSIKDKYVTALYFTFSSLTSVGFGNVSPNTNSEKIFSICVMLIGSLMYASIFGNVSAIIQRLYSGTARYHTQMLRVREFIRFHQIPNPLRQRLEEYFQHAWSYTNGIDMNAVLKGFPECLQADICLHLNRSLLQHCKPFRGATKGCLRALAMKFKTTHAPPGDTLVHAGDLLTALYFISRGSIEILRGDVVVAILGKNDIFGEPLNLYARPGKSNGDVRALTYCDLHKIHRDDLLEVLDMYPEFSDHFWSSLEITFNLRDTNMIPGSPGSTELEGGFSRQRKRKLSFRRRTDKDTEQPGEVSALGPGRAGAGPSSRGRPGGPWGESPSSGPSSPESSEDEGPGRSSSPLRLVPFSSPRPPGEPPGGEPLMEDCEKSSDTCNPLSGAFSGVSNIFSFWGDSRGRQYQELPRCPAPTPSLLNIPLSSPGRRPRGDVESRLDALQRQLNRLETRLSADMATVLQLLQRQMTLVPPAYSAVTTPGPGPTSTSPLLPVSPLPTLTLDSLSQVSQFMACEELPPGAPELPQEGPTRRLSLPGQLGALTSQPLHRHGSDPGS

Regarding `[2H]C([2H])([2H])NC(=O)c1nnc(NC(=O)C2CC2)cc1Nc1cccc(-c2ncn(C)n2)c1OC([2H])([2H])[2H]` [BMS-986165, reference compound], in the series with SD rats, the “Hematology Gran” value is recorded as 1.6 ± 0.6 ×10^9/L, the “Hematology Lymph” value is 3.6 ± 0.8 ×10^9/L and the “Hematology Mono” value is given as 0.2 ± 0.0 ×10^9/L. For the same compound, the “Percentage reduction in PASI score %” value in series [1] (day 7, 10 mg/kg, oral, day 1 to 6) is given as 30.1** %. Also, the IC50 – broadly, the concentration at which inhibition is half-maximal – against JAK3 JH1 kinase was > 10000 nM.
For `[2H]C([2H])([2H])NC(=O)c1cnc(NC(=O)C2CC2)cc1Nc1cccc(C(=O)Nc2ccc(F)cc2)c1OC` [Example 57, 6-(Cyclopropanecarboxamido)-4-((3-((4-fluorophenyl)carbamoyl)-2-methoxyphenyl)amino)-N-(methyl-d3)nicotinamide], the IC50 on TYK2 JH2 pseudokinase was 0.284 nM; on JAK1 JH2 pseudokinase, 5.68 nM; at JAK3 JH1 kinase (setting [3]) it was > 10000 nM; against TYK2 JH1 kinase it was > 10000 nM; at JAK2 JH1 kinase, > 10000 nM; on JAK1 JH1 kinase, > 10000 nM. For the same compound, the “Improvement of psoriasis symptoms by oral administration” value (shortened to “Improvement of psoriasis symptoms”) in series [1] is on record as “effectively improve psoriasis symptoms”. On hERG channel, the hERG inhibition entry is “no significant inhibition”. Also, the GI50 in series [2] was in the range of 1 to 5 nM.
For the compound `[2H]C([2H])([2H])NC(=O)c1cnc(NC(=O)C2CC2)cc1Nc1cccc(C(=O)Nc2ccc(C)c(C)c2)c1OC` [Example 62], the IC50 on TYK2 JH2 pseudokinase was 0.277 nM; at JAK1 JH2 pseudokinase, 14.3 nM; at JAK3 JH1 kinase (setting [3]), > 10000 nM; at TYK2 JH1 kinase, > 10000 nM; on JAK2 JH1 kinase, > 10000 nM; on JAK1 JH1 kinase it was > 10000 nM. Further, in [1], the “Improvement of psoriasis symptoms” value is “effectively improve psoriasis symptoms”. For the same compound, at hERG channel, the hERG inhibition result was “no significant inhibition”. In addition, the GI50 in series [2] lay in the range of 1 to 5 nM.
With `[2H]C([2H])([2H])NC(=O)c1cnc(NC(=O)C2CC2)cc1Nc1cccc(C(=O)Nc2cnn(C)c2)c1OC` [Example 86], the IC50 on TYK2 JH2 pseudokinase is 0.299 nM; on JAK1 JH2 pseudokinase, 17.6 nM; on JAK3 JH1 kinase (setting [3]), > 10000 nM; against TYK2 JH1 kinase, > 10000 nM; on JAK2 JH1 kinase it was > 10000 nM; at JAK1 JH1 kinase it was > 10000 nM. In addition, the “Improvement of psoriasis symptoms” value in [1] was “effectively improve psoriasis symptoms”. The hERG inhibition entry at hERG channel was “no significant inhibition”. Further, the GI50 in series [2] is 1 to 5 nM.
As to `[2H]C([2H])([2H])NC(=O)c1cnc(NC(=O)C2CC2)cc1Nc1cccc(C(=O)Nc2cncc(C)c2)c1OC` [Example 91], the IC50 was 0.312 nM at TYK2 JH2 pseudokinase; 3.29 nM on JAK1 JH2 pseudokinase; > 10000 nM at JAK3 JH1 kinase (setting [3]); > 10000 nM at TYK2 JH1 kinase; > 10000 nM on JAK2 JH1 kinase; > 10000 nM at JAK1 JH1 kinase. The “Improvement of psoriasis symptoms” value in series [1] is given as “effectively improve psoriasis symptoms”. In addition, on hERG channel, the hERG inhibition entry is “no significant inhibition”. The GI50 in [2] was 1 to 5 nM.
